Measurements from patent US7803399B2, “Delivery system for nucleic acids” (The Scripps Research Institute, priority 2001, dated 2010).
Where two headings read alike, the source gives them in different places.

Tested on: αvβ3 positive M21 Melanoma cells
Assay: Cell adhesion inhibition assay on vitronectin coated plates
Type: cell-based
Conditions: Homo sapiens
Method: Cell adhesion inhibition study was done on plates coated with vitronectin using human melonoma cell line M21. […] After about 1 hour incubation, the wells were washed, and the cells that adhered were stained with a solution of crystal violet and the optical density (OD) at about 590 nm was measured. The OD measured was proportional to the number of cells bound to the vitronectin plate and was plotted against the concentration of component 10 on the surface of the NPs in different formulations to calculate the IC50.
FIG. 8 schematically depicts the cell adhesion assay wherein M21 human melanoma cells, which express αvβ3, were mixed with liposomes covalently conjugated to an integrin antagonist (ligand) or to ligand alone. The cells were then placed on vitronectin plates, washed and stained. The number of bound cells was then counted using a plate counter.

SMILES: NCCS(=O)(=O)N[C@@H](CNC(=O)c1ccc(OCCNC2=NCCCN2)cc1)C(=O)O [Liposome 10, 4-[2-(3,4,5,6-Tetrahydropyrimidin-2-ylamino)ethyloxy]benzoyl-2-(S)-aminoethylsulfonamido-β-alanine]
- IC50 (FIG. 9, M21 cells on vitronectin, read-out: IC50 cell adhesion (FIG. 9), antagonist alone): 500 µM
- IC50 (M21 cells on vitronectin coated plates, monomeric ligand, read-out: IC50 for inhibition of cell adhesion, free ligand): 64 µM
